The source of these data is patent publication US6972111B1, “Rosin amine anti-fouling agents” (Bayer Aktiengesellschaft, priority 1999, dated 2005).

The structures appear in SMILES notation.

In the assay the test system is cyprid larvae of the barnacle Balanus amphitrite. Description: Settlement assay of cyprid larvae of the barnacle Balanus amphitrite. In kind it is in vivo. The note with it: cyprid larvae in seawater test solution, 27° C.±2; Spearman-Kärber method. The method, then: The rate of settlement of laboratory reared cyprid larvae of the barnacle Balanus amphitrite was determined for testing the activity of candidate anti-fouling compounds. Settlement Assay Tests are carried out in four replicates in sterile polystyrene multi well plates. Between 25 and 40 cyprid larvae are injected in the dishes containing either 2 ml of test solution (see below), solvent control or a positive control (Dichloro-n-octyl-isothiazolinone). Dishes are incubated for 24 h at a temperature of 27° C.±2. After incubation the cyprids are screened for signs of toxicity. Larvae are classified in three categories: A) alive and swimming; B) alive but not active; C) dead. The test is terminated by addition of a drop of 20% formaldehyde and the numbers of settled and non-settled larvae are counted. Settlement is evaluated as follows: 1) Non settled: not attached free swimming cyprids; 2) settled cyprids: attached, but not metamorphosed cyprids; 3) barnacles: attached juvenile barnacles. Categories 2 and 3 are considered to be settled. Percentage settlement in test solution is compared with controls. Estimates of the median effect concentration (EC-50) after […]. are calculated using the Spearman-Kärber method. All seawater used is of natural origin and filtered unto 0.2 micron. […]

Consider `CCCCCCCCn1sc(Cl)c(Cl)c1=O` [reference*, 4,5-dichloro-n-octylisothiazolinone], for which the “EC50 for settlement inhibition in ppm” value was determined as 0.37 ppm.
